Results as given in patent publication US8802661B2, “C-28 amides of modified C-3 betulinic acid derivatives as HIV maturation inhibitors” (priority 2010, dated 2014).
Counter-ions that a name gives are not always drawn. Like-named read-outs stand apart in the source and are kept apart here.

Tested on: recombinant NL4-3 virus (Renilla luciferase in nef, Gag P373S)
Experiment: HIV Cell Culture Assay (luciferase reporter virus in MT-2 cells)
Format: cell-based
Experimental: MT-2 cells and 293T cells were obtained from the NIH AIDS Research and Reference Reagent Program. MT-2 cells were propagated in RPMI 1640 media supplemented with 10% heat inactivated fetal bovine serum, […]. The 293T cells were propagated in DMEM media supplemented with 10% heat inactivated fetal bovine serum (FBS), 100 units/ml penicillin G and 100 μg/ml streptomycin. The proviral DNA clone of NL4-3 was obtained from the NIH AIDS Research and Reference Reagent Program. A recombinant NL4-3 virus, in which a section of the nef gene from NL4-3 was replaced with the Renilla luciferase gene, was used as a reference virus. In addition, residue Gag P373 was converted to P373S. Briefly, the recombinant virus was prepared by transfection of the altered proviral clone of NL4-3. Transfections were performed in 293T cells using LipofectAMINE PLUS from Invitrogen (Carlsbad, Calif.), according to manufacturer's instruction. The virus was titered in MT-2 cells using luciferase enzyme activity as a marker. Luciferase was quantitated using the Dual Luciferase kit from Promega (Madison, Wis.), with modifications to the manufacturer's protocol. The diluted Passive Lysis solution was pre-mixed with the re-suspended Luciferase Assay Reagent and the re-suspended Stop & Glo Substrate (2:1:1 ratio). Fifty (50) μL of the mixture was added to each aspirated well on assay plates and luciferase activity was measured immediately on a Wallac TriLux (Perkin-Elmer). Antiviral activities of inhibitors toward the recombinant virus were quantified by measuring luciferase activity in cells infected for 4-5 days with NLRluc recombinants in the presence serial dilutions of the inhibitor. Table 1 is the key for the data in Table 2.

Structure (SMILES) | EC50 (NL43) | EC50 (NL43, read-out: EC50 Group)
C=C(C)[C@@H]1CC[C@]2(C(=O)NCCN3CCS(=O)(=O)CC3)CC[C@]3(C)[C@H](CC[C@@H]4[C@@]5(C)CC=C(c6ccc(B(O)O)cc6)C(C)(C)[C@@H]5CC[C@]43C)[C@@H]12 [Example 130, (4-((1R,3aS,5aR,5bR,7aR,11aS,11bR,13aR,13bR)-3a-((2-(1,1-dioxidothiomorpholino)ethyl)carbamoyl)-5a,5b,8,8,11a-pentamethyl-1-(prop-1-en-2-yl)-2,3,3a,4,5,5a,5b,6,7,7a,8,11,11a,11b,12,13,13a,13b-octadecahydro-1H-cyclopenta[a]chrysen-9-yl)phenyl)boronic acid, TFA] | 13.4 nM | 
C=C(C)[C@@H]1CC[C@]2(C(=O)NCC3CCCN3CC)CC[C@]3(C)[C@H](CC[C@@H]4[C@@]5(C)CC=C(c6ccc(C(=O)O)cc6)C(C)(C)[C@@H]5CC[C@]43C)[C@@H]12 (stereo partly drawn) [Example 39, 4-((1R,3aS,5aR,5bR,7aR,11aS,11bR,13aR,13bR)-3a-((1-ethylpyrrolidin-2-yl)methylcarbamoyl)-5a,5b,8,8,11a-pentamethyl-1-(prop-1-en-2-yl)-2,3,3a,4,5,5a,5b,6,7,7a,8,11,11a,11b,12,13,13a,13b-octadecahydro-1H-cyclopenta[a]chrysen-9-yl)benzoic acid] |  | < 100 nM
C=C(C)[C@@H]1CC[C@]2(C(=O)NCCOC)CC[C@]3(C)[C@H](CC[C@@H]4[C@@]5(C)CC=C(c6ccc(C(=O)O)cc6)C(C)(C)[C@@H]5CC[C@]43C)[C@@H]12 [Example 69, 4-((1R,3aS,5aR,5bR,7aR,11aS,11bR,13aR,13bR)-3a-(2-methoxyethylcarbamoyl)-5a,5b,8,8,11a-pentamethyl-1-(prop-1-en-2-yl)-2,3,3a,4,5,5a,5b,6,7,7a,8,11,11a,11b,12,13,13a,13b-octadecahydro-1H-cyclopenta[a]chrysen-9-yl)benzoic acid] |  | < 100 nM
C=C(C)[C@@H]1CC[C@]2(C(=O)NCCN)CC[C@]3(C)[C@H](CC[C@@H]4[C@@]5(C)CC=C(c6ccc(C(=O)O)cc6)C(C)(C)[C@@H]5CC[C@]43C)[C@@H]12 [Example 125, 4-((1R,3aS,5aR,5bR,7aR,11aS,11bR,13aR,13bR)-3a-(2-aminoethylcarbamoyl)-5a,5b,8,8,11a-pentamethyl-1-(prop-1-en-2-yl)-2,3,3a,4,5,5a,5b,6,7,7a,8,11,11a,11b,12,13,13a,13b-octadecahydro-1H-cyclopenta[a]chrysen-9-yl)benzoic acid] |  | < 100 nM
C=C(C)[C@@H]1CC[C@]2(C(=O)NCCN3CCOCC3)CC[C@]3(C)[C@H](CC[C@@H]4[C@@]5(C)CC=C(c6ccc(C(=O)O)cc6)C(C)(C)[C@@H]5CC[C@]43C)[C@@H]12 [Example 12, 4-((1R,3aS,5aR,5bR,7aR,11aS,11bR,13aR,13bR)-5a,5b,8,8,11a-pentamethyl-3a-(2-morpholinoethylcarbamoyl)-1-(prop-1-en-2-yl)-2,3,3a,4,5,5a,5b,6,7,7a,8,11,11a,11b,12,13,13a,13b-octadecahydro-1H-cyclopenta[a]chrysen-9-yl)benzoic acid] |  | < 100 nM
C=C(C)[C@@H]1CC[C@]2(C(=O)NCCN(C)C)CC[C@]3(C)[C@H](CC[C@@H]4[C@@]5(C)CC=C(c6ccc(C(=O)O)s6)C(C)(C)[C@@H]5CC[C@]43C)[C@@H]12 [Example 66, 5-((1R,3aS,5aR,5bR,7aR,11aS,11bR,13aR,13bR)-3a-(2-(dimethylamino)ethylcarbamoyl)-5a,5b,8,8,11a-pentamethyl-1-(prop-1-en-2-yl)-2,3,3a,4,5,5a,5b,6,7,7a,8,11,11a,11b,12,13,13a,13b-octadecahydro-1H-cyclopenta[a]chrysen-9-yl)thiophene-2-carboxylic acid] |  | < 100 nM
C=C(C)[C@@H]1CC[C@]2(C(=O)NCCN(C)C)CC[C@]3(C)[C@H](CC[C@@H]4[C@@]5(C)CC=C(c6ccc(C(=O)O)cc6)C(C)(C)[C@@H]5CC[C@]43C)[C@@H]12 [Example 16, 4-((1R,3aS,5aR,5bR,7aR,11aS,11bR,13aR,13bR)-3a-(2-(dimethylamino)ethylcarbamoyl)-5a,5b,8,8,11a-pentamethyl-1-(prop-1-en-2-yl)-2,3,3a,4,5,5a,5b,6,7,7a,8,11,11a,11b,12,13,13a,13b-octadecahydro-1H-cyclopenta[a]chrysen-9-yl)benzoic acid] |  | < 100 nM
C=C(C)[C@@H]1CC[C@]2(C(=O)NCCN(CC(=O)O)Cc3ccccc3)CC[C@]3(C)[C@H](CC[C@@H]4[C@@]5(C)CC=C(c6ccc(C(=O)O)cc6)C(C)(C)[C@@H]5CC[C@]43C)[C@@H]12 [Example 107, 4-((1R,3aS,5aR,5bR,7aR,11aS,11bR,13aR,13bR)-3a-(2-(benzyl(carboxymethyl)amino)ethylcarbamoyl)-5a,5b,8,8,11a-pentamethyl-1-(prop-1-en-2-yl)-2,3,3a,4,5,5a,5b,6,7,7a,8,11,11a,11b,12,13,13a,13b-octadecahydro-1H-cyclopenta[a]chrysen-9-yl)benzoic acid] |  | < 100 nM
C=C(C)[C@@H]1CC[C@]2(C(=O)NCCN(CC(=O)O)c3ccccc3)CC[C@]3(C)[C@H](CC[C@@H]4[C@@]5(C)CC=C(c6ccc(C(=O)O)cc6)C(C)(C)[C@@H]5CC[C@]43C)[C@@H]12 [Example 111, 4-((1R,3aS,5aR,5bR,7aR,11aS,11bR,13aR,13bR)-3a-(2-((carboxymethyl)(phenyl)amino)ethylcarbamoyl)-5a,5b,8,8,11a-pentamethyl-1-(prop-1-en-2-yl)-2,3,3a,4,5,5a,5b,6,7,7a,8,11,11a,11b,12,13,13a,13b-octadecahydro-1H-cyclopenta[a]chrysen-9-yl)benzoic acid] |  | < 100 nM
C=C(C)[C@@H]1CC[C@]2(C(=O)NCCN(C)C)CC[C@]3(C)[C@H](CC[C@@H]4[C@@]5(C)CC=C(c6ccc(C(=O)O)c(F)c6)C(C)(C)[C@@H]5CC[C@]43C)[C@@H]12 [Example 104, 4-((1R,3aS,5aR,5bR,7aR,11aS,11bR,13aR,13bR)-3a-(2-(dimethylamino)ethylcarbamoyl)-5a,5b,8,8,11a-pentamethyl-1-(prop-1-en-2-yl)-2,3,3a,4,5,5a,5b,6,7,7a,8,11,11a,11b,12,13,13a,13b-octadecahydro-1H-cyclopenta[a]chrysen-9-yl)-2-fluorobenzoic acid] |  | < 100 nM
C=C(C)[C@@H]1CC[C@]2(C(=O)NCCN(CC(=O)O)CC(=O)O)CC[C@]3(C)[C@H](CC[C@@H]4[C@@]5(C)CC=C(c6ccc(C(=O)O)cc6)C(C)(C)[C@@H]5CC[C@]43C)[C@@H]12 [Example 88, 2,2′-(2-((1R,3aS,5aR,5bR,7aR,11aS,11bR,13aR,13bR)-9-(4-carboxyphenyl)-5a,5b,8,8,11a-pentamethyl-1-(prop-1-en-2-yl)-2,3,3a,4,5,5a,5b,6,7,7a,8,11,11a,11b,12,13,13a,13b-octadecahydro-1H-cyclopenta[a]chrysene-3a-carboxamido)ethylazanediyl)diacetic acid] |  | > 100 nM
CC(C)[C@@H]1CC[C@]2(C(=O)NCCN(C)C)CC[C@]3(C)[C@H](CC[C@@H]4[C@@]5(C)CC=C(c6ccc(C(=O)O)cc6)C(C)(C)[C@@H]5CC[C@]43C)[C@@H]12 [Example 78, 4-((1S,3aS,5aR,5bR,7aR,11aS,11bR,13aR,13bR)-3a-(2-(dimethylamino)ethylcarbamoyl)-1-isopropyl-5a,5b,8,8,11a-pentamethyl-2,3,3a,4,5,5a,5b,6,7,7a,8,11,11a,11b,12,13,13a,13b-octadecahydro-1H-cyclopenta[a]chrysen-9-yl)benzoic acid] |  | < 100 nM
C=C(C)[C@@H]1CC[C@]2(C(=O)N[C@@H](CCSC)C(=O)O)CC[C@]3(C)[C@H](CC[C@@H]4[C@@]5(C)CC=C(c6ccc(C(=O)O)cc6)C(C)(C)[C@@H]5CC[C@]43C)[C@@H]12 [Example 63, 4-((1R,3aS,5aR,5bR,7aR,11aS,11bR,13aR,13bR)-3a-((S)-1-carboxy-3-(methylthio)propylcarbamoyl)-5a,5b,8,8,11a-pentamethyl-1-(prop-1-en-2-yl)-2,3,3a,4,5,5a,5b,6,7,7a,8,11,11a,11b,12,13,13a,13b-octadecahydro-1H-cyclopenta[a]chrysen-9-yl)benzoic acid] |  | > 100 nM
C=C(C)[C@@H]1CC[C@]2(C(=O)NCCCN3CCS(=O)(=O)CC3)CC[C@]3(C)[C@H](CC[C@@H]4[C@@]5(C)CC=C(c6ccc(C(=O)O)c(C(=O)O)c6)C(C)(C)[C@@H]5CC[C@]43C)[C@@H]12 [Example 112, 4-((1R,3aS,5aR,5bR,7aR,11aS,11bR,13aR,13bR)-3a-((3-(1,1-dioxido-4-thiomorpholinyl)propyl)carbamoyl)-1-isopropenyl-5a,5b,8,8,11a-pentamethyl-2,3,3a,4,5,5a,5b,6,7,7a,8,11,11a,11b,12,13,13a,13b-octadecahydro-1H-cyclopenta[a]chrysen-9-yl)phthalic acid] |  | < 100 nM
